The subject of assay [1] is Nakaseomyces glabratus. Nature of the assay: Antifungal activity against Candida glabrata 200989 assessed as log reduction in bacterial count at 0.125 to 16 ug/ml by time-kill analysis. In kind it is functional.
Assay [2] has as its system Nakaseomyces glabratus. Nature of the assay: Antifungal activity against slt2 deficient Candida glabrata 200989 assessed as log reduction in bacterial count at 0.125 ug/ml by time-kill analysis. The assay is classed as functional.
Assay [3] relates to Nakaseomyces glabratus. Briefly: Antifungal activity against slt2 deficient Candida glabrata 200989 assessed as log reduction in bacterial count at 1 ug/ml by time-kill analysis. The assay is classed as functional.
In assay [4] the test system is Nakaseomyces glabratus. Nature of the assay: Antifungal activity against slt2 deficient Candida glabrata 200989 assessed as log reduction in bacterial count at 16 ug/ml by time-kill analysis. The assay is classed as functional.
For assay [5], the system named is Nakaseomyces glabratus. Nature of the assay: Increase in slt2 gene expression in Candida glabrata 200989 at 0.125 to 16 ug/ml after 10 mins by RT-PCR analysis relative to control. The assay is classed as functional.
The subject of assay [6] is Nakaseomyces glabratus. Briefly: Increase in slt2 gene expression in Candida glabrata 200989 at 0.125 to 16 ug/ml after 180 mins by RT-PCR analysis relative to control. The assay is classed as functional.
Assay [7] has as its system Nakaseomyces glabratus. Nature of the assay: Increase in slt2 gene expression in Candida glabrata 200989 at 0.125 to 16 ug/ml after 12 hrs by RT-PCR analysis. The assay is classed as functional, organism-based.
Assay [8] deals with Nakaseomyces glabratus. Briefly: Increase in chitin content in Candida glabrata 200989 at 0.125 to 16 ug/ml after 12 hrs relative to control. In kind it is functional.
For assay [9], the system named is Nakaseomyces glabratus. Briefly: Increase in chitin content in slt2 deficient Candida glabrata 200989 at 0.125 to 16 ug/ml after 12 hrs. In kind it is functional, organism-based.
Assay [10] concerns Nakaseomyces glabratus. Briefly: Increase in CHS3 gene expression in slt2 deficient Candida glabrata 200989 at 0.125 to 16 ug/ml after 180 mins by RT-PCR analysis. In kind it is functional, organism-based.
The subject of assay [11] is Nakaseomyces glabratus. Briefly: Antifungal activity against Candida glabrata 200989 at 0 to 32 ug/ml by XTT […] assay. The assay is classed as functional, organism-based.
The subject of assay [12] is Nakaseomyces glabratus. Nature of the assay: Antifungal activity against Candida glabrata 200989 at 0.125 to 16 ug/ml by time-kill analysis. The assay is classed as functional, organism-based.
For assay [13], the system named is Nakaseomyces glabratus. Briefly: Increase in CHS3 gene expression in Candida glabrata 200989 at 0.125 to 16 ug/ml after 180 mins by RT-PCR analysis relative to control. In kind it is functional.

Here are results for 1 compound from ChEMBL document CHEMBL1255239, “Increases in SLT2 expression and chitin content are associated with incomplete killing of Candida glabrata by caspofungin” (2008).

Active and inactive are the calls of the source. The calls are words filed in the database; no cut-off is given here. Where only a bound is given, the exact number is not on record here.

On to `CC[C@H](C)C[C@H](C)CCCCCCCCC(=O)N[C@H]1C[C@@H](O)[C@@H](NCCN)NC(=O)[C@@H]2[C@@H](O)CCN2C(=O)[C@H]([C@H](O)CCN)NC(=O)[C@H]([C@H](O)[C@@H](O)c2ccc(O)cc2)NC(=O)[C@@H]2C[C@@H](O)CN2C(=O)[C@H]([C@@H](C)O)NC1=O` [CASPOFUNGIN], for which the log10cfu is 1.6 /ml in the assay on Nakaseomyces glabratus [1], 2.6 /ml in the assay with Nakaseomyces glabratus [2], 4.2 /ml in the assay on Nakaseomyces glabratus [3] and 4.2 /ml in the assay on Nakaseomyces glabratus [4]. Further, the “fold change (FC)” value with Nakaseomyces glabratus [5] is recorded as >2; with Nakaseomyces glabratus [6], “>=3.8”; in the assay on Nakaseomyces glabratus [8] it was >3.5; in the assay with Nakaseomyces glabratus [13], >2. Also, the result with Nakaseomyces glabratus [7], in the assay on Nakaseomyces glabratus [9], with Nakaseomyces glabratus [10], in the assay on Nakaseomyces glabratus [11] and in the assay on Nakaseomyces glabratus [12] was inactive.
